This is an account of results in ChEMBL document CHEMBL2321655, “Insulin-like growth factor-1 receptor inhibitors: a potential cancer treatment: patent highlight” (ACS Med Chem Lett, 2013).

Some results are limits rather than exact numbers.

Broadly, the IC50 is the point on the concentration scale where inhibition reaches its midpoint. A low value points to inhibition by little substance.

Experiment [1] concerns HT-29. Kind of experiment: Antiproliferative activity against human HT-29 cells. The experiment is classed as functional, cell-based.
For experiment [2], the system named is MCF7. Kind of experiment: Antiproliferative activity against human MCF7 cells. The experiment is classed as functional, cell-based.

Regarding `NC(=O)c1[nH]c2c(N)cc(Cl)cc2c1S(=O)(=O)N1CCOC(COc2ccccc2)C1` (stereo not drawn), the IC50 in experiment [1] is over 10 µM; in experiment [2], 2.2 µM.
For the compound `CCOC(=O)N1CCC(Nc2cc(Cl)cc3c(S(=O)(=O)N4CCOC(COc5ccccc5)C4)c(C(N)=O)[nH]c23)CC1` (stereo not drawn), the IC50 worked out at 1.7 µM in experiment [1] and 0.9 µM in experiment [2].
With `NC(=O)c1[nH]c2c(NC3CCOCC3)cc(Cl)cc2c1S(=O)(=O)N1CCOC(COc2ccccc2)C1` (stereo not drawn), the figures for the IC50 in experiment [1] and in experiment [2] were 2.8 µM and 0.8 µM, respectively.
The corresponding values for `N#CCCNc1cc(Cl)cc2c(S(=O)(=O)N3CCOC(COc4ccccc4)C3)c(C(N)=O)[nH]c12` (stereo not drawn) are 5.3 µM and under 1 µM.
